The results in this text go back to patent publication US20070269451A1, “Nucleic Acid Vaccination” (priority 1999, published 2007).

Entries after “also recorded” stand apart in the source; their conditions may differ.

The subject of one assay is anti-MUC1 antibody SM3. As to the kind of experiment: ELISA binding of anti-MUC1 antibody SM3 to synthetic MUC1 VNTR peptides. More on the design: key to ELISA signal, Antibody SM3: +++ indicates strong binding; ++ indicates fair binding; + indicates weak binding; − indicates no significant binding. The settings on record: for ELISA signal, Antibody SM3: peptide coated 50 μg/ml to 25 ng/ml, semiquantitative scale, absorbance at 490 nm; for binding for the SM3 antibody (in words): Table 2. The text has this:
(§1) Synthetic peptides were designed containing mutations at the glycosylation sites. Particular attention was focused on substitutions at the threonine residue in this sequence (T11). Table 1 below indicates the peptides that were designed and their mutated glycosylation sites. Peptides containing two identical copies of the designed VNTR were synthesised at Genemed Synthesis Inc (San Francisco, Calif.). These peptides were then screened for their ability to bind to a number of anti-MUC1 monoclonal antibodies in an ELISA.
(§2) Peptides were prepared as aqueous solutions in 50 mM sodium bicarbonate buffer pH9.6 and coated onto Nunc Maxisorp plates at 4° C. overnight at a range of concentrations between 50 μg/ml and 25 ng/ml. After extensive washing with TBS-Tween (Tris-buffered saline, pH7.4 containing 0.05% Tween20), the plates were blocked with blocking solution (3% w/v bovine serum albumin in TBS-Tween) for 2 hours at room temperature. Anti-MUC1 antibodies HMFG1 (Novocastra, Newcastle, UK), HMFG2 (Novocastra), SM3 (Girling et al, 1989, Int J Cancer 43:1072-1076) and ATR1 (Bynum et al, 1995, Hybridoma 14:587-591) were diluted in blocking solution, added to the plate and incubated at room temperature for one hour. After washing, bound antibody was labelled by incubation with HRP-conjugated anti-mouse IgG (P260, Dako, Denmark) at 1/2000 dilution in blocking buffer. The plate was washed again and bound conjugate detected using Fast OPD colour reagents (Sigma, Poole, UK). The reaction was stopped by the addition of 3M sulphuric acid, and the OPD product quantitated by measuring the absorbance at 490 nm.
(§3) The ELISA signal for each antibody and peptide combination is ranked according to a semiquantitative scale, where +++ indicates strong binding, ++ indicates fair binding, + indicates weak binding, and − indicates no significant binding.
A general note: ELISA stands for enzyme-linked immunosorbent assay.

Another assay relates to antibody SM3. As to the kind of experiment: Antibody binding curve for the mutant polypeptides (SM3 ELISA, FIG. 4). The settings on record: peptide coated at 3 ug/ml. As to the method:
as §2
The polypeptides described in table 1 above were again used in this experiment. The methodology was essentially similar to Example 1 except that peptides were coated onto an ELISA plate at a fixed concentration of 3 ug/ml, and different concentrations of antibody SM3 were applied.

For a further assay, the system named is anti-MUC1 antibody HMFG1. As to the kind of experiment: ELISA binding of anti-MUC1 antibody HMFG1 to synthetic MUC1 VNTR peptides. More on the design: key: +++ indicates strong binding; ++ indicates fair binding; + indicates weak binding; − indicates no significant binding. To be noted: peptide coated 50 μg/ml to 25 ng/ml; semiquantitative scale; absorbance at 490 nm.
Text: as §1, §2, §3

The next assay concerns anti-MUC1 antibody ATR1. The experiment in a line: ELISA binding of anti-MUC1 antibody ATR1 to synthetic MUC1 VNTR peptides. More on the design: key: +++ indicates strong binding; ++ indicates fair binding; + indicates weak binding; − indicates no significant binding. The settings on record: peptide coated 50 μg/ml to 25 ng/ml; semiquantitative scale; absorbance at 490 nm.
Text: as §1, §2, §3

The subject of a further assay is anti-MUC1 antibody HMFG2. The experiment in a line: ELISA binding of anti-MUC1 antibody HMFG2 to synthetic MUC1 VNTR peptides. Also noted: key: +++ indicates strong binding; ++ indicates fair binding; + indicates weak binding; − indicates no significant binding. The settings on record: peptide coated 50 μg/ml to 25 ng/ml; semiquantitative scale; absorbance at 490 nm.
Text: as §1, §2, §3

The mark [1] stands for this setting: different concentrations of SM3.

With Ac-(PAHGVVAAPDARPAPGAVAP)2-NH2 [Mut5A], in the assay on anti-MUC1 antibody SM3, the “ELISA signal, Antibody SM3” value is reported as “−”. Moreover, the “SM3 antibody binding pattern / affinity across a range of antibody concentrations” value in the assay with antibody SM3 (setting [1]) is reported as “essentially the same as those shown for Mut5W”; in the assay with antibody SM3 (different concentrations of SM3, listed as Mut 5A), “substantially the same results as those shown for Mut5W”. Also, the “ELISA signal, Antibody HMFG1” value in the assay with anti-MUC1 antibody HMFG1 was “++”. The “ELISA signal, Antibody ATR1” value in the assay on anti-MUC1 antibody ATR1 is “+++”. The “ELISA signal, Antibody HMFG2” value in the assay on anti-MUC1 antibody HMFG2 was “−”.
Turning to Ac-(PAHGVVAAPDIRPAPGAVAP)2-NH2 [Mut5I], in the assay on anti-MUC1 antibody SM3, the “binding for the SM3 antibody (in words)” value is listed as “maintain binding” and the “ELISA signal, Antibody SM3” value is given as “+++”. Also, the “SM3 antibody binding pattern / affinity across a range of antibody concentrations” value in the assay with antibody SM3 (setting [1]) was “does little to reduce the affinity”. Moreover, the “ELISA signal, Antibody HMFG1” value in the assay with anti-MUC1 antibody HMFG1 is recorded as “++”. For the same substance, in the assay on anti-MUC1 antibody ATR1, the “ELISA signal, Antibody ATR1” value is recorded as “++”. In addition, the “ELISA signal, Antibody HMFG2” value in the assay on anti-MUC1 antibody HMFG2 is recorded as “+++”.
With Ac-(PAHGVVAAPDNRPAPGAVAP)2-NH2 [Mut5N], in the assay on anti-MUC1 antibody SM3, the “ELISA signal, Antibody SM3” value was “−”. The “SM3 antibody binding pattern / affinity across a range of antibody concentrations” value with antibody SM3 (setting [1]) is given as “substantially the same results as those shown for Mut5W; also recorded: essentially the same as those shown for Mut5W”. Further, the “ELISA signal, Antibody HMFG1” value with anti-MUC1 antibody HMFG1 is “−”. In addition, the “ELISA signal, Antibody ATR1” value with anti-MUC1 antibody ATR1 is listed as “+++”. Moreover, in the assay with anti-MUC1 antibody HMFG2, the “ELISA signal, Antibody HMFG2” value is “−”.
As to Ac-(PAHGVVAAPDPRPAPGAVAP)2-NH2 [Mut5P], in the assay on anti-MUC1 antibody SM3, the “ELISA signal, Antibody SM3” value is reported as “−”. Also, the “SM3 antibody binding pattern / affinity across a range of antibody concentrations” value in the assay with antibody SM3 (setting [1]) is on record as “substantially the same results as those shown for Mut5W; also recorded: essentially the same as those shown for Mut5W”. The “ELISA signal, Antibody HMFG1” value in the assay on anti-MUC1 antibody HMFG1 was “+”. Moreover, in the assay with anti-MUC1 antibody ATR1, the “ELISA signal, Antibody ATR1” value is “+”. For the same substance, the “ELISA signal, Antibody HMFG2” value in the assay with anti-MUC1 antibody HMFG2 was “−”.
For Ac-(PAHGVVAAPDTRPAPGAVAP)2-NH2 [Mut4], the “ELISA signal, Antibody SM3” value in the assay with anti-MUC1 antibody SM3 is listed as “+++”. For the same substance, the “ELISA signal, Antibody HMFG1” value in the assay with anti-MUC1 antibody HMFG1 is on record as “++”. For the same substance, the “ELISA signal, Antibody ATR1” value in the assay with anti-MUC1 antibody ATR1 is reported as “+++”. Besides, in the assay with anti-MUC1 antibody HMFG2, the “ELISA signal, Antibody HMFG2” value is reported as “+++”.
Regarding Ac-(PAHGVVAAPDVRPAPGAVAP)2-NH2 [Mut5V], in the assay on anti-MUC1 antibody SM3, the “binding for the SM3 antibody (in words)” value is given as “maintain binding” and the “ELISA signal, Antibody SM3” value is given as “+++”. In addition, the “SM3 antibody binding pattern / affinity across a range of antibody concentrations” value in the assay with antibody SM3 (setting [1]) was “does little to reduce the affinity”. Further, the “ELISA signal, Antibody HMFG1” value in the assay on anti-MUC1 antibody HMFG1 is recorded as “−”. In addition, the “ELISA signal, Antibody ATR1” value in the assay on anti-MUC1 antibody ATR1 is “+++”. For the same substance, the “ELISA signal, Antibody HMFG2” value in the assay on anti-MUC1 antibody HMFG2 is listed as “+++”.
Turning to Ac-(PAHGVVAAPDWRPAPGAVAP)2-NH2 [Mut5W], the “ELISA signal, Antibody SM3” value in the assay on anti-MUC1 antibody SM3 is on record as “−”. Moreover, the “ELISA signal, Antibody HMFG1” value in the assay on anti-MUC1 antibody HMFG1 was “−”. Also, the “ELISA signal, Antibody ATR1” value with anti-MUC1 antibody ATR1 is “++”. Further, in the assay on anti-MUC1 antibody HMFG2, the “ELISA signal, Antibody HMFG2” value is “−”.
